Data set [1] is described as follows: Antioxidant activity assessed as DPPH radical scavenging activity at 500 uM incubated for 30 mins under dark condition by microplate reader assay. It counts as functional. For orientation: DPPH is a stable violet radical that fades when it is reduced.
Data set [2] addresses T1, Mushroom tyrosinase (Agaricus bisporus, UniProt O42713+Q00024+C7FF04+C7FF05). In words: Inhibition of mushroom tyrosinase using L-DOPA as substrate incubated for 30 mins by microplate reader assay. It counts as protein assay.
Data set [3] can be described thus: Antioxidant activity assessed as ABTS radical scavenging activity at 100 uM measured at 1 min interval for 10 mins by microplate reader analysis. It counts as functional.
Data set [4] has as its target T1, Mushroom tyrosinase. In words: Inhibition of mushroom tyrosinase using L-tyrosine as substrate incubated for 30 mins by microplate reader assay. It counts as protein assay.
The nature of data set [5]: Antioxidant activity assessed as ROS scavenging activity at 40 uM incubated for 30 mins under dark condition in presence of SIN-1 by microplate reader assay. It counts as functional.
The target in data set [6] is T2, Tyrosinase (Mus musculus) (UniProt P11344).
T2 sequence (whole entry): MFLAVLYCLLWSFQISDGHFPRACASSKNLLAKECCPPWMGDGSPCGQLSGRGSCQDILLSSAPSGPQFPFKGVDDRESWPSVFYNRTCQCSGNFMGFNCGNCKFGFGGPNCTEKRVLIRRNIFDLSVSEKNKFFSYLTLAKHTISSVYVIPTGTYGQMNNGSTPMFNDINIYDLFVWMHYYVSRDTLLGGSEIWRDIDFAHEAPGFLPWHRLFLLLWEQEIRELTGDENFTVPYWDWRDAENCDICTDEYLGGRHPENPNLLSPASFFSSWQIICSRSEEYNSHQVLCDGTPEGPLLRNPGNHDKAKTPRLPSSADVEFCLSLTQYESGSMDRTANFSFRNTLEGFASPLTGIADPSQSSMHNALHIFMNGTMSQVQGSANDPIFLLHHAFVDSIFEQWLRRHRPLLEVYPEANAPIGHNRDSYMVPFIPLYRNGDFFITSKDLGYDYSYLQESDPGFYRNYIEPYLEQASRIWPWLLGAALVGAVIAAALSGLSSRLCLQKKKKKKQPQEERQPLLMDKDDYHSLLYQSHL
In words: Inhibition of tyrosinase activity in IBMX/[…] stimulated mouse B16-F10 cells preincubated for 1 hr followed by IBMX/[…] addition and measured after 72 hrs by microplate reader assay. It counts as cell-based. As to conditions: dose 5-20 µM, time 73.0 hrs.

The target in data set [7] is T1, Mushroom tyrosinase. In words: Inhibition of mushroom tyrosinase using varying levels of L-DOPA as substrate by Dixon plot analysis. It counts as protein assay.
Data set [8] concerns B16-F10. The experiment in a line: Antimelanogenic activity against IBMX/[…] stimulated mouse B16-F10 cells assessed as reduction in intracellular melanin production preincubated for 1 hr followed by IBMX/[…] addition and measured after 72 hrs by microplate reader assay. It counts as functional, cell-based. To be noted: dose 5-20 µM, time 73.0 hrs.
In data set [9] the test system is B16-F10. In words: Cytotoxicity against mouse B16-F10 cells upto 20 uM incubated for 72 hrs by EZ-Cytox method. It counts as toxicity, cell-based. To be noted: b16-f10, 72 h.
Data set [10] deals with T3, Mushroom tyrosinase (Agaricus bisporus) (UniProt O42713+Q00024+C7FF04+C7FF05). The experiment in a line: Competitive inhibition of mushroom tyrosinase assessed as increase in Km with constant Vmax at 25 to 100 uM using varying levels of L-DOPA as substrate by Lineweaver-Burk plot analysis. It counts as protein assay. As to conditions: dose 25-100 µM.
The target in data set [11] is T3, Mushroom tyrosinase (Agaricus bisporus). The experiment in a line: Mixed type inhibition of mushroom tyrosinase at 3 to 12 uM using varying levels of L-DOPA as substrate by Lineweaver-Burk plot analysis. It counts as protein assay. To be noted: dose 3-12 µM.
Data set [12] shares this target. In words: Potency index, ratio of kojic acid IC50 to test compound IC50 for inhibition of mushroom tyrosinase using L-Tyrosine as substrate. It counts as protein assay.
Data set [13] has the same target. In words: Potency index, ratio of kojic acid IC50 to test compound IC50 for inhibition of mushroom tyrosinase using L-Dopa as substrate. It counts as protein assay.

Experimental findings from ChEMBL document CHEMBL5523672, “Thiazol-4(5H)-one analogs as potent tyrosinase inhibitors: Synthesis, tyrosinase inhibition, antimelanogenic effect, antioxidant activity, and in silico docking simulation” (Bioorg Med Chem, 2024) are described below.

Calls of active or inactive are those of the source. No cut-off for these calls is given here. Where only a bound is given, the exact number is not on record here.

On to `COc1ccc(CNC2=NC(=O)/C(=C/c3ccc(F)cc3F)S2)cc1`, for which the outcome in data set [1], in data set [3] and in [5] was inactive. Also, the results for the IC50 on Mushroom tyrosinase [2] and against Mushroom tyrosinase [4] were 179.2 µM and > 200 µM, respectively.
Regarding `COc1ccc(CNC2=NC(=O)/C(=C/c3ccc(O)c(O)c3)S2)cc1`, the Activity was 100% in [1] and 75% in data set [3]. Moreover, the IC50 against Mushroom tyrosinase [2] was 105.1 µM; against Mushroom tyrosinase [4], > 200 µM. Also, the outcome in [5] was Active.
Taken in the same sequence, the figures for `CCOc1cc(/C=C2\SC(NCc3ccc(OC)cc3)=NC2=O)ccc1O` were > 80%, 41%, 98.5 µM, 174.2 µM and “inactive”.
Turning to `O=C1O[C@H]([C@@H](O)CO)C(O)=C1O`, the Activity in data set [1] was 96%.
As for `COc1ccc(CNC2=NC(=O)/C(=C/c3ccc(O)cc3)S2)cc1`, in data set [1], the result was inactive. The results for the IC50 against Mushroom tyrosinase [2] and against Mushroom tyrosinase [4] were 29.2 µM and > 200 µM, respectively.
In the case of `COc1ccc(/C=C2\SC(NCc3ccc(OC)cc3)=NC2=O)cc1`, the outcome in data set [1] and in data set [3] was inactive. Further, the half-inhibitory concentration (IC50) on Mushroom tyrosinase [2] and at Mushroom tyrosinase [4] was > 200 µM throughout. Further, the outcome in data set [5] was Active.
As to `COc1ccc(CNC2=NC(=O)/C(=C/c3ccc(OC)cc3OC)S2)cc1`, the result in [1] and in [3] was inactive. Further, the results for the IC50 at Mushroom tyrosinase [2] and on Mushroom tyrosinase [4] were 146.4 µM and > 200 µM, respectively. The outcome in data set [5] was Active.
Turning to `COc1ccc(CNC2=NC(=O)/C(=C/c3ccc(OC)c(O)c3)S2)cc1`, the values for the IC50 against Mushroom tyrosinase [2] and against Mushroom tyrosinase [4] were 13 µM and 107.9 µM, respectively. Further, the Activity is 41% in data set [3], “Dose-Dependent Effect” in the data set with B16-F10 [8] and “Non-Toxic” with B16-F10 [9]. In addition, in data set [6], the inhibition entry is “Dose-Dependent Effect”. The compound also came in with a Ki at Mushroom tyrosinase [7] of 65.83 µM. Also, the inhibition result in data set [10] is “Active”. Moreover, in data set [5], the outcome was inactive.
As to `COc1ccc(CNC2=NC(=O)/C(=C/c3ccc(O)cc3O)S2)cc1`, the Activity was > 80% in data set [1], 90% in data set [3], “Dose-Dependent Effect” in the data set on B16-F10 [8] and “Non-Toxic” in the data set with B16-F10 [9]. In addition, the results for the IC50 against Mushroom tyrosinase [2] and against Mushroom tyrosinase [4] were 0.4 µM and 2.1 µM, respectively. In addition, in data set [11], the inhibition result was “Active”. Also, the inhibition entry in data set [6] was “Dose-Dependent Effect”. The same compound registered a Ki at Mushroom tyrosinase [7] of 1.1 µM. In addition, the Ratio IC50 in [12] was 26; in data set [13], 19. The outcome in data set [5] was inactive.
Regarding `COc1ccc(CNC2=NC(=O)/C(=C/c3ccc(O)c(OC)c3)S2)cc1`, the Activity in [1] was found to be 93%; in data set [3] it was 41%. For the same compound, the IC50 against Mushroom tyrosinase [2] is 78.1 µM; on Mushroom tyrosinase [4], 29.4 µM. Further, the outcome in data set [5] was inactive.
In the case of `COc1ccc(CNC2=NC(=O)/C(=C/c3cc(OC)c(O)c(OC)c3)S2)cc1`, the IC50 on Mushroom tyrosinase [2] and against Mushroom tyrosinase [4] was > 200 µM throughout. Moreover, the Activity in [3] is 41%. Also, the outcome in data set [5] was inactive.
For the compound `COc1ccc(CNC2=NC(=O)/C(=C/c3ccc(OC)c(OC)c3)S2)cc1`, the outcome in [1] and in data set [3] was inactive. For the same compound, the IC50 on Mushroom tyrosinase [2] was 136 µM; on Mushroom tyrosinase [4], > 200 µM. For the same compound, the result in data set [5] was Active.
Regarding `COc1ccc(CNC2=NC(=O)/C(=C/c3cc(C(C)(C)C)c(O)c(C(C)(C)C)c3)S2)cc1`, the Activity in data set [1] is > 80%; in [3], 41%. The IC50 is 100.9 µM on Mushroom tyrosinase [2] and > 200 µM on Mushroom tyrosinase [4]. In addition, the outcome in [5] was inactive.
As for `Cc1c(C)c2c(c(C)c1O)CCC(C)(C(=O)O)O2` (stereo unspecified), the Activity in data set [3] was 99.9%. Further, the result in data set [5] was Active.
For the compound `COc1ccc(CNC2=NC(=O)/C(=C/c3cc(OC)c(OC)c(OC)c3)S2)cc1`, the outcome in data set [1] and in [3] was inactive. In addition, the IC50 on Mushroom tyrosinase [2] and on Mushroom tyrosinase [4] was > 200 µM in each case. Also, the outcome in [5] was Active.
As for `COc1ccc(CNC2=NC(=O)/C(=C/c3ccc(F)c(F)c3)S2)cc1`, the outcome in data set [1], in data set [3] and in data set [5] was inactive. Further, the IC50 against Mushroom tyrosinase [2] is 79.5 µM; at Mushroom tyrosinase [4] it was > 200 µM.

For orientation: IC50 means the point on the concentration scale where inhibition reaches its midpoint. Read a low IC50 as greater potency in that assay. The Ki is the equilibrium dissociation constant of an inhibitor or competing ligand from its target. Read a high Ki as a looser hold on the target.
